Measurements reported in ChEMBL document CHEMBL1125580, “Synthesis and in vivo photodynamic activity of some bacteriochlorin derivatives against bladder tumors in rodents” (1991).

Tested on: Rattus norvegicus
Assay: Compound was evaluated in vivo for the effective dose of irradiation that causes antitumor activity
Assay type: functional
Conditions: light or radiation study

Row | Structure (SMILES) | ED50
1 | CCC1=C(CC)c2cc3[nH]c(cc4[nH]c(cc5nc(cc1n2)C(=O)C5(CC)CC)c(CC)c4CC)C1(CC)C3=CCC(C(=O)OC)=C1C(=O)OC.CCC1=C(CC)c2cc3[nH]c(cc4[nH]c(cc5nc(cc1n2)C1=CCC(C(=O)OC)=C(C(=O)OC)C15CC)c(CC)c4CC)C(=O)C3(CC)CC (stereo not drawn) | 1 mg/kg
2 | C=CC1=C(CC)/C2=C/c3[nH]c(c(CC)c3CC)/C=C3N=C(/C=c4\[nH]/c(c(CC)c4CC)=C\C1N2)C(CC)(CC)C\3=O.C=CC1=C(CC)C2/C=c3\[nH]/c(c(CC)c3CC)=C\C3=NC(=C\c4[nH]c(c(CC)c4CC)/C=C/1N2)/C(=O)C3(CC)CC (mixture of isomers) | 2.5 mg/kg
3 | CCC1=C(CC)c2cc3[nH]c(cc4[nH]c(cc5nc(cc1n2)C(=O)C5(CC)CC)c(CC)c4CC)C1(CC)C3=CCC(C#N)(C#N)C1(C#N)C#N.CCC1=C(CC)c2cc3[nH]c(cc4[nH]c(cc5nc(cc1n2)C1=CCC(C#N)(C#N)C(C#N)(C#N)C15CC)c(CC)c4CC)C(=O)C3(CC)CC (mixture of isomers) | 2.5 mg/kg
